Here are results for ten compounds from ChEMBL document CHEMBL1201862, “PubChem BioAssay data set” (2004).

SMILES strings stand for the structures.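 These data come from cells grown in 96-well plates and exposed to compound for 48 hours at five concentrations. GI50 = concentration required for 50% inhibition of growth.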 Calls of active or inactive are those of the source. No stated cut-off is given here; in the data, active = GI50 up to about 1.1 µM and inactive = higher. Bounds are passed on as bounds.

Test systems include 786-0; DU-145; EKVX; HCC 2998; HCT-15; MDA-MB-435; MDA-N; Malme-3M; NCI-H23; OVCAR-3; RPMI-8226; RXF 393; SF-295; SF-539; SK-MEL-2; SNB-75; SR; SW-620; UACC-62; UO-31.
Test in all cases: inhibition of tumour cell growth, NCI panel, 48 h

As to `c1ccc(-c2c[nH]c(SC(c3ccccc3)c3ccccc3)n2)cc1`, the GI50 in the assay with 786-0 is 32.1 µM (inactive); with DU-145, 23.4 µM (inactive); in the assay on EKVX, 13.3 µM (inactive); in the assay on HCC 2998, 17 µM (inactive); in the assay on HCT-15, 13.3 µM; with MDA-MB-435, 21.1 µM (inactive). The GI50 was 20.7 µM (inactive) in the assay with MDA-N; 15 µM (inactive) with Malme-3M; 14.7 µM (inactive) in the assay with NCI-H23; 33.4 µM (inactive) in the assay with OVCAR-3; 10.8 µM (inactive) with RPMI-8226; 15.8 µM (inactive) in the assay with RXF 393. Besides, the GI50 with SF-295 was 15.2 µM (inactive); in the assay on SF-539, 30.4 µM (inactive); with SK-MEL-2, 16.9 µM (inactive); in the assay with SNB-75 it was 32.1 µM (inactive); in the assay on SR, 13.3 µM (inactive); with SW-620, 27.6 µM (inactive). Besides, the GI50 is 14.2 µM (inactive) in the assay with UACC-62 and 29.6 µM (inactive) with UO-31.

For the compound `Cc1ccc(S(=O)(=O)N/C(=N\O)Nc2ccc(Cl)c(Cl)c2)cc1`, the GI50 in the assay with 786-0 is 4.6 µM (inactive); in the assay on DU-145 it was 12 µM (inactive); with EKVX it was 5.92 µM (inactive); with HCC 2998 it was 2.14 µM (inactive); in the assay on HCT-15, 6.67 µM; in the assay with MDA-MB-435 it was 3.48 µM (inactive). Besides, the GI50 with MDA-N is 3.57 µM (inactive); in the assay with Malme-3M, 2.07 µM (inactive); in the assay with NCI-H23 it was 15.7 µM (inactive); in the assay with OVCAR-3, 4.41 µM (inactive); in the assay with RPMI-8226 it was 10.1 µM (inactive); in the assay on RXF 393, 9.84 µM (inactive). Further, the GI50 with SF-295 was 17.2 µM (inactive); in the assay on SF-539, 12.1 µM (inactive); in the assay with SK-MEL-2, 10.2 µM (inactive); in the assay with SNB-75, 5.14 µM (inactive); with SR, 5.69 µM (inactive); in the assay with SW-620, 11.2 µM (inactive). Besides, the GI50 in the assay on UACC-62 is 11.7 µM (inactive); in the assay on UO-31, 5.02 µM (inactive).

For the compound `OC1c2c(ccc3c2CCC3)CC12Cc1ccccc1C2` (stereo not given), the GI50 was 17.1 µM (inactive) in the assay with 786-0; 16.3 µM (inactive) with DU-145; 16.4 µM (inactive) with EKVX; 13.5 µM (inactive) in the assay with HCC 2998; 16.5 µM in the assay on HCT-15; 15.7 µM (inactive) with MDA-MB-435. Besides, the GI50 in the assay on MDA-N is 15.5 µM (inactive); in the assay on Malme-3M it was 12 µM (inactive); with NCI-H23, 16.8 µM (inactive); in the assay with OVCAR-3, 13.6 µM (inactive); in the assay with RPMI-8226, 14.7 µM (inactive); with RXF 393, 13.8 µM (inactive). The GI50 in the assay with SF-295 was 17.1 µM (inactive); with SF-539, 21.3 µM (inactive); in the assay on SK-MEL-2 it was 15.3 µM (inactive); with SNB-75, 13.8 µM (inactive); in the assay with SR it was 10.9 µM (inactive); in the assay on SW-620, 17.7 µM (inactive). Also, the GI50 was 15.4 µM (inactive) in the assay on UACC-62 and 14.2 µM (inactive) in the assay with UO-31.

Take `C(/Cc1ccc2c(c1)OCO2)=N\N=C1NCCCN1`: the GI50 is 78.2 µM (inactive) in the assay with 786-0; 67.5 µM (inactive) with DU-145; 48.9 µM (inactive) in the assay with EKVX; 41.7 µM (inactive) in the assay with HCC 2998; > 100 µM with HCT-15; > 100 µM (inactive) with MDA-MB-435. Besides, the GI50 in the assay on MDA-N was > 100 µM (inactive); in the assay on Malme-3M, 64.4 µM (inactive); with NCI-H23, > 100 µM (inactive); with OVCAR-3 it was 80.2 µM (inactive); in the assay with RPMI-8226, 56.1 µM (inactive); with RXF 393 it was 42.9 µM (inactive). The GI50 was 38.2 µM (inactive) in the assay with SF-295; 50.5 µM (inactive) in the assay on SF-539; > 100 µM (inactive) in the assay with SK-MEL-2; 15.2 µM (inactive) in the assay on SNB-75; 22.5 µM (inactive) in the assay with SR; > 100 µM (inactive) in the assay with SW-620. Also, the GI50 with UACC-62 is > 100 µM (inactive); with UO-31, 38.2 µM (inactive).

Take `COC(=O)c1cc2c3c(cc(NCCN)c2[nH]1)N(C(=O)c1cc2cc(OC)c(OC)c(OC)c2[nH]1)CC3CCl` (stereo not given): the GI50 in the assay with 786-0 was 0.0423 µM (active); with DU-145, 0.0221 µM (active); with EKVX, 0.158 µM (active); in the assay on HCC 2998 it was 0.0982 µM (active); in the assay with HCT-15, 0.573 µM; in the assay on MDA-MB-435 it was 0.152 µM (active). Further, the GI50 with MDA-N is 0.0811 µM (active); in the assay on Malme-3M it was 0.0377 µM (active); in the assay on NCI-H23, 0.0659 µM (active); in the assay with OVCAR-3, 0.0728 µM (active); in the assay with RPMI-8226, 0.25 µM (active); with RXF 393 it was 0.0301 µM (active). The GI50 in the assay with SF-295 is 0.228 µM (active); with SF-539 it was 0.0392 µM (active); in the assay on SK-MEL-2, 0.0628 µM (active); in the assay with SNB-75, 0.0382 µM (active); in the assay on SR it was 0.0153 µM (active); in the assay with SW-620, 0.0369 µM (active). Moreover, the values for the GI50 in the assay with UACC-62 and in the assay with UO-31 were 0.0594 µM (active) and 0.192 µM (active), respectively.

In the case of `C[C@]12C=CC(=O)C=C1[C@@H](F)C[C@H]1[C@@H]3CC[C@](O)(C(=O)CO)[C@@]3(C)C[C@H](O)[C@@]12F`, the GI50 is > 100 µM (inactive) in the assay on 786-0; > 100 µM (inactive) with DU-145; > 64.4 µM (inactive) with EKVX; > 100 µM (inactive) in the assay on HCC 2998; > 100 µM in the assay with HCT-15; > 100 µM (inactive) in the assay on MDA-MB-435. Also, the GI50 in the assay on MDA-N is > 100 µM (inactive); in the assay with Malme-3M it was > 100 µM (inactive); in the assay on NCI-H23, > 100 µM (inactive); in the assay with OVCAR-3, > 100 µM (inactive); in the assay with RPMI-8226 it was > 87.5 µM (inactive); in the assay with RXF 393, > 85.5 µM (inactive). Also, the GI50 in the assay with SF-295, with SF-539, with SK-MEL-2, in the assay with SNB-75, in the assay with SR and in the assay with SW-620 was > 100 µM (inactive) in each case. In addition, the GI50 in the assay on UACC-62 and in the assay on UO-31 was > 100 µM (inactive) in each case.

With `O=c1oc2ccc3ccccc3c2cc1-c1nc2ccc([N+](=O)[O-])cc2o1`, the GI50 is 12.4 µM (inactive) with 786-0; > 58.6 µM (inactive) with DU-145; 31.3 µM (inactive) with EKVX; > 100 µM (inactive) in the assay on HCC 2998; 69 µM in the assay on HCT-15; > 58.3 µM (inactive) in the assay with MDA-MB-435. Besides, the GI50 with MDA-N was > 100 µM (inactive); in the assay with Malme-3M, 59.4 µM (inactive); in the assay with NCI-H23, 41.2 µM (inactive); in the assay with OVCAR-3, > 100 µM (inactive); with RPMI-8226, > 51.1 µM (inactive); with RXF 393 it was 4.72 µM (inactive). Besides, the GI50 in the assay on SF-295 was 13.5 µM (inactive); in the assay with SF-539, 10.4 µM (inactive); in the assay with SK-MEL-2, > 64.9 µM (inactive); in the assay on SNB-75, 14.8 µM (inactive); in the assay on SR it was > 71.4 µM (inactive); in the assay with SW-620 it was > 100 µM (inactive). For the same compound, the GI50 is 59 µM (inactive) with UACC-62 and > 49.2 µM (inactive) in the assay with UO-31.

Regarding `CCC(=O)C(CCN1CCC2(CCCc3ccccc32)CC1)(c1ccccc1)c1ccccc1`, the GI50 was 2.12 µM (inactive) with 786-0; 3.1 µM (inactive) in the assay on DU-145; 4 µM (inactive) in the assay with EKVX; 2.64 µM (inactive) with HCC 2998; 2.55 µM in the assay on HCT-15; 3.49 µM (inactive) in the assay with MDA-MB-435. The GI50 with MDA-N is 3.96 µM (inactive); in the assay on Malme-3M it was 1.91 µM (inactive); in the assay with NCI-H23, 2.15 µM (inactive); in the assay on OVCAR-3, 2.2 µM (inactive); with RPMI-8226, 0.622 µM (active); in the assay on RXF 393, 2 µM (inactive). Besides, the GI50 is 2.02 µM (inactive) in the assay on SF-295; 2.95 µM (inactive) in the assay with SF-539; 2 µM (inactive) with SK-MEL-2; 2.95 µM (inactive) in the assay on SNB-75; 1.66 µM (inactive) with SR; 2.87 µM (inactive) in the assay on SW-620. Also, the GI50 was 3.72 µM (inactive) in the assay on UACC-62 and 2.39 µM (inactive) in the assay on UO-31.

With `CC(C)(C)c1ccc(-c2nc3ccc([N+](=O)[O-])cc3c(=O)o2)cc1`, the GI50 is 26.8 µM (inactive) with 786-0; 32.7 µM (inactive) in the assay with DU-145; 25.4 µM (inactive) in the assay on EKVX; 12.9 µM (inactive) in the assay with HCC 2998; 22.6 µM in the assay on HCT-15; 25.1 µM (inactive) with MDA-MB-435. Further, the GI50 with MDA-N was 31.6 µM (inactive); with Malme-3M, 28.9 µM (inactive); in the assay with NCI-H23, 28.7 µM (inactive); in the assay on OVCAR-3 it was 27.4 µM (inactive); in the assay with RPMI-8226, 30.9 µM (inactive); in the assay with RXF 393 it was 42.6 µM (inactive). In addition, the GI50 is 20.8 µM (inactive) in the assay on SF-295; 17.1 µM (inactive) with SF-539; 20.7 µM (inactive) with SK-MEL-2; 24.9 µM (inactive) in the assay on SNB-75; 22.7 µM (inactive) with SR; 31 µM (inactive) with SW-620. Besides, the GI50 is 24.5 µM (inactive) with UACC-62 and 32.9 µM (inactive) in the assay with UO-31.

Take `COC(=O)[C@H](CCSC)NC(=O)c1ccc(CNC(=O)/C(C)=C/c2ccccc2)cc1`: the GI50 is 20.8 µM (inactive) in the assay with 786-0; 37.9 µM (inactive) in the assay on DU-145; 83.2 µM (inactive) with EKVX; 9.48 µM (inactive) in the assay on HCC 2998; > 100 µM with HCT-15; 74.5 µM (inactive) with MDA-MB-435. In addition, the GI50 was 55.6 µM (inactive) in the assay with MDA-N; 15.3 µM (inactive) in the assay on Malme-3M; 45.8 µM (inactive) with NCI-H23; 60.8 µM (inactive) in the assay on OVCAR-3; > 100 µM (inactive) in the assay with RPMI-8226; 15.8 µM (inactive) with RXF 393. The GI50 is 48.5 µM (inactive) with SF-295; 26.5 µM (inactive) in the assay with SF-539; 20.7 µM (inactive) in the assay on SK-MEL-2; 3.81 µM (inactive) with SNB-75; 92.7 µM (inactive) with SR; 47 µM (inactive) in the assay with SW-620. Further, the GI50 was 32.3 µM (inactive) in the assay on UACC-62 and 43.5 µM (inactive) in the assay with UO-31.
